According to patent US9326506B2, “Preparation method, agricultural composition and applications of natural brassinolide analogs” (CHENGDU NEWSUN CROPSCIENCE CO., LTD, priority 2012, dated 2016):

Tested on: rice
Assay: Low temperature assay on rice seedlings
Type: in vivo
Method: According to a low temperature assay, we measured parameters including plant height, number of leaf, area of leaf, number of tiller, weight of root at low temperature to completely determine effects of the natural brassinolide analogues on the resistance to low temperature of a plant.
The natural brassinolide analogues, BR1, BR2, BR3, BR4, BR5 and BR6, used herein, were those prepared by the method of Example 1. Respectively the analogues were dissolved into 95% (V/V) ethanol solution, and then diluted with pure water to 1 mg/L, 0.1 mg/L, 0.01 mg/L, 0.001 mg/L and 0.0001 mg/L. In addition, pure water was used as a control.
After rice seeds were disinfected by using 5% sodium hypochlorite solution treatment, they were rinsed with distilled water until their pH>7, placed into a petri dish in a dark incubator, and cultured by using water at 30° C.±2° C. for 9 days. Then respectively the nine-day-old etiolated seedlings of rice were immersed in the above solutions containing different concentrations of the natural brassinolide analogues or pure water, and cultured at the temperature of 1° C., 2° C., 3° C., 4° C. and 5° C. for 24 hr. The parameters including plant height, area of leaf and weight of root after 3, 6, 9 and 12 days and number of leaf and number of tiller after 12 days were measured.

Molecule `CC(C)C[C@@H](O)[C@H](O)[C@@H](C)[C@H]1CCC2C3CC(=O)C4C[C@H](O)[C@H](O)C[C@]4(C)C3CC[C@@]21C` (stereo partly drawn) [BR5] has an Area of leaf (0.0001 mg/l, 1 °C, 3 days) of 9.8 cm^2, a Height (0.0001 mg/l, 1 °C, 3 days) of 6.8 cm and a Weight of root (0.0001 mg/l, 1 °C, 3 days) of 2.8 g. The Area of leaf (0.0001 mg/l, 1 °C, 6 days) was 11.2 cm^2, the Height (0.0001 mg/l, 1 °C, 6 days) was 6.9 cm and the Weight of root (0.0001 mg/l, 1 °C, 6 days) was 3.1 g. The Area of leaf (0.0001 mg/l, 1 °C, 9 days) was 12 cm^2, the Height (0.0001 mg/l, 1 °C, 9 days) was 7 cm and the Weight of root (0.0001 mg/l, 1 °C, 9 days) was 3.4 g. For the same molecule, the Area of leaf (0.0001 mg/l, 1 °C, 12 days) was 13.1 cm^2, the Height (0.0001 mg/l, 1 °C, 12 days) was 7.2 cm and the Number of leaf (0.0001 mg/l, 1 °C, 12 days) was 3. For the same molecule, the Number of tiller (0.0001 mg/l, 1 °C, 12 days) was 3, the Weight of root (0.0001 mg/l, 1 °C, 12 days) was 3.6 g and the Area of leaf (0.0001 mg/l, 2 °C, 3 days) was 10 cm^2. The Height (0.0001 mg/l, 2 °C, 3 days) was 6.8 cm, the Weight of root (0.0001 mg/l, 2 °C, 3 days) was 2.8 g and the Area of leaf (0.0001 mg/l, 2 °C, 6 days) was 11.7 cm^2. The Height (0.0001 mg/l, 2 °C, 6 days) was 7 cm, the Weight of root (0.0001 mg/l, 2 °C, 6 days) was 3.0 g and the Area of leaf (0.0001 mg/l, 2 °C, 9 days) was 12.4 cm^2. It also gave a Height (0.0001 mg/l, 2 °C, 9 days) of 7.1 cm, a Weight of root (0.0001 mg/l, 2 °C, 9 days) of 3.2 g and an Area of leaf (0.0001 mg/l, 2 °C, 12 days) of 13 cm^2. For the same molecule, the Height (0.0001 mg/l, 2 °C, 12 days) was 7.4 cm, the Number of leaf (0.0001 mg/l, 2 °C, 12 days) was 3 and the Number of tiller (0.0001 mg/l, 2 °C, 12 days) was 3. It also gave a Weight of root (0.0001 mg/l, 2 °C, 12 days) of 3.4 g, an Area of leaf (0.0001 mg/l, 3 °C, 3 days) of 10 cm^2 and a Height (0.0001 mg/l, 3 °C, 3 days) of 6.9 cm. The Weight of root (0.0001 mg/l, 3 °C, 3 days) was 2.5 g, the Area of leaf (0.0001 mg/l, 3 °C, 6 days) was 11.8 cm^2 and the Height (0.0001 mg/l, 3 °C, 6 days) was 7.2 cm. For the same molecule, the Weight of root (0.0001 mg/l, 3 °C, 6 days) was 2.6 g, the Area of leaf (0.0001 mg/l, 3 °C, 9 days) was 12.3 cm^2 and the Height (0.0001 mg/l, 3 °C, 9 days) was 7.4 cm. It also gave a Weight of root (0.0001 mg/l, 3 °C, 9 days) of 2.9 g, an Area of leaf (0.0001 mg/l, 3 °C, 12 days) of 13.2 cm^2 and a Height (0.0001 mg/l, 3 °C, 12 days) of 7.5 cm. The Number of leaf (0.0001 mg/l, 3 °C, 12 days) was 3, the Number of tiller (0.0001 mg/l, 3 °C, 12 days) was 2 and the Weight of root (0.0001 mg/l, 3 °C, 12 days) was 2.9 g. For the same molecule, the Area of leaf (0.0001 mg/l, 4 °C, 3 days) was 10 cm^2, the Height (0.0001 mg/l, 4 °C, 3 days) was 6.9 cm and the Weight of root (0.0001 mg/l, 4 °C, 3 days) was 2.5 g. It also gave an Area of leaf (0.0001 mg/l, 4 °C, 6 days) of 11.7 cm^2, a Height (0.0001 mg/l, 4 °C, 6 days) of 7.3 cm and a Weight of root (0.0001 mg/l, 4 °C, 6 days) of 2.6 g. For the same molecule, the Area of leaf (0.0001 mg/l, 4 °C, 9 days) was 13 cm^2, the Height (0.0001 mg/l, 4 °C, 9 days) was 7.5 cm and the Weight of root (0.0001 mg/l, 4 °C, 9 days) was 2.7 g. The Area of leaf (0.0001 mg/l, 4 °C, 12 days) was 13.4 cm^2, the Height (0.0001 mg/l, 4 °C, 12 days) was 7.6 cm and the Number of leaf (0.0001 mg/l, 4 °C, 12 days) was 3. The Number of tiller (0.0001 mg/l, 4 °C, 12 days) was 2, the Weight of root (0.0001 mg/l, 4 °C, 12 days) was 2.9 g and the Area of leaf (0.0001 mg/l, 5 °C, 3 days) was 10.2 cm^2. It also gave a Height (0.0001 mg/l, 5 °C, 3 days) of 7.0 cm, a Weight of root (0.0001 mg/l, 5 °C, 3 days) of 2.5 g and an Area of leaf (0.0001 mg/l, 5 °C, 6 days) of 12 cm^2. For the same molecule, the Height (0.0001 mg/l, 5 °C, 6 days) was 7.2 cm, the Weight of root (0.0001 mg/l, 5 °C, 6 days) was 2.7 g and the Area of leaf (0.0001 mg/l, 5 °C, 9 days) was 13.2 cm^2. It also gave a Height (0.0001 mg/l, 5 °C, 9 days) of 7.5 cm, a Weight of root (0.0001 mg/l, 5 °C, 9 days) of 2.9 g and an Area of leaf (0.0001 mg/l, 5 °C, 12 days) of 14 cm^2. It also gave a Height (0.0001 mg/l, 5 °C, 12 days) of 7.7 cm, a Number of leaf (0.0001 mg/l, 5 °C, 12 days) of 3 and a Number of tiller (0.0001 mg/l, 5 °C, 12 days) of 2. It also gave a Weight of root (0.0001 mg/l, 5 °C, 12 days) of 3.0 g, an Area of leaf (0.001 mg/l, 1 °C, 3 days) of 10.1 cm^2 and a Height (0.001 mg/l, 1 °C, 3 days) of 6.9 cm. For the same molecule, the Weight of root (0.001 mg/l, 1 °C, 3 days) was 2.8 g, the Area of leaf (0.001 mg/l, 1 °C, 6 days) was 11.3 cm^2 and the Height (0.001 mg/l, 1 °C, 6 days) was 7.1 cm. The Weight of root (0.001 mg/l, 1 °C, 6 days) was 3.1 g, the Area of leaf (0.001 mg/l, 1 °C, 9 days) was 12.8 cm^2 and the Height (0.001 mg/l, 1 °C, 9 days) was 7.2 cm. For the same molecule, the Weight of root (0.001 mg/l, 1 °C, 9 days) was 3.3 g, the Area of leaf (0.001 mg/l, 1 °C, 12 days) was 13 cm^2 and the Height (0.001 mg/l, 1 °C, 12 days) was 7.3 cm. The Number of leaf (0.001 mg/l, 1 °C, 12 days) was 3, the Number of tiller (0.001 mg/l, 1 °C, 12 days) was 3 and the Weight of root (0.001 mg/l, 1 °C, 12 days) was 3.9 g. For the same molecule, the Area of leaf (0.001 mg/l, 2 °C, 3 days) was 9.8 cm^2, the Height (0.001 mg/l, 2 °C, 3 days) was 6.9 cm and the Weight of root (0.001 mg/l, 2 °C, 3 days) was 2.8 g.
